In patent US5817826A, “Oxazolinone derivatives having cytosolic phospholipase A2 inhibitory activity” (Shionogi & Co., Ltd., priority 1993, dated 1998):
pIC50: −log10 of the molar value.

Experiments:
[1] = target: T1, cytosolic PLA2 (Homo sapiens, UniProt P47712); experiment: Cytosolic PLA2 inhibition activity (sonicated liposomes with 1-palmitoyl-2-[14C]arachidonyl-sn-glycero-3-phosphocholine); format: biochemical; details: for pIC50: 2 μM radiolabeled phosphatidylcholine liposomes, 1 mM CaCl2, pH 7.4; for inhibition at 2 µM: compound at 2 μM, relative to enzyme control
T1 sequence (P47712 1-749): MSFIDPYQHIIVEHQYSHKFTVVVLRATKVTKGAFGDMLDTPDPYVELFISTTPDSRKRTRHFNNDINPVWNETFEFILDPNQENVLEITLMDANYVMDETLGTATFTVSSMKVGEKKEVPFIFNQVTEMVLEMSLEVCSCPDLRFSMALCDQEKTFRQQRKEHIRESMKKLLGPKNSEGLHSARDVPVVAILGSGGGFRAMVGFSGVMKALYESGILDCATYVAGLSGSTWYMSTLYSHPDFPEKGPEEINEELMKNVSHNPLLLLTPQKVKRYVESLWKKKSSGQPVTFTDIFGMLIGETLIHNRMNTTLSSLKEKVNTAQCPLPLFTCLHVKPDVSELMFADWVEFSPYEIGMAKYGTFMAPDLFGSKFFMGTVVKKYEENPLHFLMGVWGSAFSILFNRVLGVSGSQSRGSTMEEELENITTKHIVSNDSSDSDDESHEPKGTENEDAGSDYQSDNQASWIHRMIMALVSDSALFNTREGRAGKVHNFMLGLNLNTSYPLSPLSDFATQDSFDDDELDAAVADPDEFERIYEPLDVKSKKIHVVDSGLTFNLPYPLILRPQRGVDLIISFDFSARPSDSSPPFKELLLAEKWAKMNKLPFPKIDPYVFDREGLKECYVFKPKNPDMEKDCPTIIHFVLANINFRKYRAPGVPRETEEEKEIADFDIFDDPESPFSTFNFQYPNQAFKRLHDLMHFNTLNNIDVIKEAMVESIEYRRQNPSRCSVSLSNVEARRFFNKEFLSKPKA
Description: Taking the above matter into consideration, the compounds of the present invention were evaluated for their effect on cytosolic PLA2 activity as described in published literature [Kramer, R. M., Robers, E. F., Manetta, J. and Putanam, J. E. et al., J. Biol. Chem. 268 (8): 5268-5272, 1991]. Briefly, PLA2 activity was assayed using sonicated liposomes containing 1-palmitoyl-2-[^14 C]arachidonyl-sn-glycero-3-phosphocholine and sn-1,2-dioleoyl glycerol at a molar ratio of 2:1. The assay mixture contained 1 mM CaCl2, 2 mM 2-mercaptoethanol, 150 mM NaCl, 50 mM Hepes, pH 7.4, and 0.1 mg/ml BSA. The substrate consisted of 2 μM radiolabeled phosphatidycholine liposomes containing 1 μM dioleoyl glycerol.
The amount of released fatty acids in the reaction as mentioned above was quantitated by a liquid scintillation counter. Separately, the same assay was performed except that the compound of the present invention was not added to serve as the enzyme control. The inhibitioory activity was expressed as a percent (%) of PLA2 activity in the enzyme control, and thereby 50% inhibition concentration was calculated.

[2] = hygroscopicity (printed with the elemental analysis); format: physicochemical; details: amorphous form

| SMILES | pIC50 [1] | inhibition at 2 µM [1] | hygroscopicity [2] |
| --- | --- | --- | --- |
| O=C(Cn1c(-c2ccccc2)c(-c2ccccc2)oc1=O)OC(c1ccccc1)c1ccccc1 [Compound 0003] | 4.28 |  |  |
| O=C1O[C@@H](c2ccccc2)[C@@H](c2ccccc2)N1Cc1cccc(F)c1 [Compound 0181] | 4.00 |  |  |
| Cn1c(-c2ccccc2)c(-c2ccccc2)oc1=O [Compound 0002] | 4.17 |  |  |
| CC(C)=CCn1cc(C(c2ccccc2)c2ccccc2)oc1=O [Compound 0155] | 4.24 |  |  |
| O=c1oc(-c2ccccc2)c(-c2ccccc2)n1S(=O)(=O)c1ccc2ccccc2c1 [Compound 0067] | < 4.30 |  |  |
| CCCCn1c(-c2ccccc2)c(-c2ccccc2)oc1=O [Compound 0044] | 4.27 | 19% |  |
| CN1CCN(S(=O)(=O)c2ccc(-c3oc(=O)[nH]c3-c3ccccc3)cc2)CC1 [Compound 0037] | 3.68 |  |  |
| O=C1O[C@H](c2ccccc2)[C@H](c2ccccc2)N1Cc1cccc(F)c1 [Compound 0168] | 4.18 |  |  |
| O=c1oc(-c2ccccc2)c(-c2ccccc2)n1CCCCc1ccccc1 [Compound 0108] | 4.23 |  |  |
| CC(C)=CCC/C(C)=C/Cn1cc(C(c2ccccc2)c2ccccc2)oc1=O [Compound 0156] | 3.92 |  |  |
| O=C(O)c1ccc(-c2oc(=O)n(Cc3ccccc3)c2-c2ccc(C(=O)O)cc2)cc1 [Compound 0054, 3-Benzyl-4,5-bis-(4-hydroxycarbonylphenyl)-3-oxazolin-2-one] | 3.91 |  |  |
| O=C(NCCN1CCCCC1)c1[nH]c(=O)oc1-c1ccccc1 [Compound 0030] | 3.99 |  | 5 µg/min |
| CC(C)=CCC/C(C)=C/CC/C(C)=C/Cn1c(-c2ccccc2)c(-c2ccccc2)oc1=O [Compound 0069] | 3.82 |  |  |
| O=c1[nH]cc(C(c2ccccc2)c2ccccc2)o1 [Compound 0142] | 3.66 |  |  |
| CC(C)=CCn1cc(C(c2ccccc2)(c2ccccc2)c2ccccc2)oc1=O [Compound 0140] | 4.05 |  |  |
| O=c1oc(-c2ccccc2)c(-c2ccccc2)n1CCCCOc1ccccc1 [Compound 0090] | 4.19 | 14% |  |
| O=c1oc(C(c2ccccc2)c2ccccc2)cn1CCCOc1ccc(C(F)(F)F)cc1 [Compound 0153] | 3.90 |  |  |
| O=c1oc(-c2ccccc2)c(-c2ccccc2)n1Cc1ccccn1 [Compound 0091, 3-(2'-Pyridylmethyl)-4,5-diphenyl-oxazol-2-one] | 3.98 | 11% |  |
| CC(C)=CCC/C(C)=C/CN1C(=O)O[C@H](c2ccccc2)[C@@H]1c1ccccc1 [Compound 0169] | 4.07 |  |  |
| CC(C)=CCC/C(C)=C/CN1C(=O)O[C@@H](c2ccccc2)[C@H]1c1ccccc1 [Compound 0182] | 4.18 |  |  |
| Cc1noc(C)c1Cn1c(-c2ccccc2)c(-c2ccccc2)oc1=O [Compound 0109] | 3.60 |  |  |
| O=c1[nH]c(-c2ccccc2)c(-c2ccc(S(=O)(=O)NCCC[n+]3ccccc3)cc2)o1 [Compound 0028] | 3.99 |  |  |
| COC(=O)c1c(-c2ccccc2)oc(=O)n1Cc1ccccc1 [Compound 0079] | 3.66 |  |  |
| O=C(O)c1[nH]c(=O)oc1-c1ccccc1 [Compound 0029] | 3.99 |  |  |
| CC(C)=CCC/C(C)=C/CN1C(=O)OC[C@@H]1Cc1ccccc1 [Compound 0315] | 4.05 | 22% |  |

The remaining compounds from weak to strong by pIC50 [1], led by results:

| pIC50 [1] | inhibition at 2 µM [1] | hygroscopicity [2] | SMILES |
| --- | --- | --- | --- |
| 4.30 | 18% |  | CC(C)=CCC/C(C)=C/CC/C(C)=C/CN1C(=O)O[C@H](c2ccccc2)[C@H]1c1ccccc1 [Compound 0303] |
| 4.30 | 20% |  | O=C1O[C@H](c2ccccc2)[C@@H](c2ccccc2)N1Cc1ccc(Cl)s1 [Compound 0246] |
| 4.30 |  |  | O=c1oc(-c2ccccc2)cn1Cc1ccccc1 [Compound 0073, 3-Benzyl-5-phenyl-4-oxazolin-2-one] |
| ~4.30 | 13% |  | CC(C)=CCC/C(C)=C\CN1C(=O)O[C@@H](c2ccccc2)[C@@H]1c1ccccc1 [Compound 0313] |
| 4.30 |  |  | C#CCn1c(-c2ccccc2)c(-c2ccccc2)oc1=O [Compound 0062, 3-(2-propynyl)-4,5-diphenyl-oxazol-2-one] |
| 4.37 | 21% |  | O=C1O[C@H](c2ccccc2)[C@@H](c2ccccc2)N1Cc1cccc(F)c1 [Compound 0212] |
| 4.38 | 12% |  | O=c1oc(-c2ccccc2)c(-c2ccccc2)n1COCc1ccccc1 [Compound 0099] |
| 4.46 | 17% |  | O=c1oc(-c2ccccc2)c(-c2ccccc2)n1Cc1ccccc1F [Compound 0047, 3-(2-Fluorobenzyl)-4,5-diphenyl-oxazol-2-one] |
| 4.46 | 26% |  | CC(C)=CCC/C(C)=C/Cn1cc(-c2ccccc2)oc1=O [Compound 0095] |
| 4.49 | 32% |  | O=C1O[C@H](c2ccccc2)[C@H](c2ccccc2)N1Cc1ccc(Cl)s1 [Compound 0199] |
| 4.55 | 48% |  | O=c1oc(-c2ccccc2)cn1C(c1ccccc1)c1ccccc1 [Compound 0097] |
| 4.77 |  |  | O=c1oc(-c2ccccc2)c(-c2ccccc2)n1Cc1ccc(F)cc1 [Compound 0048, 3-(4-Fluorobenzyl)-4,5-diphenyl-oxazol-2-one] |
| 4.85 | 21% |  | O=c1oc(-c2ccccc2)c(-c2ccccc2)n1CCc1ccccc1 [Compound 0075, 4,5-Diphenyl-3-N-phenylethyl-3-oxazolin-2-one] |
| 4.89 | 18% |  | CC(C)=CCn1c(-c2ccccc2)c(-c2ccccc2)oc1=O [Compound 0071] |
| 4.96 | 21% |  | CC(C)=CCC/C(C)=C\CN1C(=O)O[C@H](c2ccccc2)[C@H]1c1ccccc1 [Compound 0296] |
| 5.00 | 23% |  | O=C1O[C@H](c2ccccc2)[C@@H](c2ccccc2)N1CCCCc1ccccc1 [Compound 0247] |
| 5.03 | 24% |  | CC(C)=CCC/C(C)=C/CN1C(=O)O[C@H](c2ccccc2)[C@H]1c1ccccc1 [Compound 0213] |
| 5.06 | 32% |  | CC(C)=CCC/C(C)=C/CN1C(=O)O[C@@H](c2cccs2)[C@@H]1c1ccccc1 [Compound 0325] |
| 5.08 | 28% |  | O=c1oc(-c2ccccc2)c(-c2ccccc2)n1CCCc1ccccc1 [Compound 0092] |
| 5.08 | 19% |  | O=c1oc(-c2ccccc2)c(-c2ccccc2)n1Cc1ccc(Cl)s1 [Compound 0086] |
| 5.13 | 33% |  | CC(C)=CCC[C@H](C)CCN1C(=O)O[C@@H](c2ccccc2)[C@@H]1c1ccccc1 [Compound 0347] |
| 5.18 | 36% |  | O=C1O[C@@H](c2ccccc2)[C@H](c2ccccc2)N1CCCCc1ccccc1 [Compound 0289] |
| 5.21 | 24% |  | O=c1oc(-c2ccccc2)c(-c2ccccc2)n1Cc1cccc(F)c1 [Compound 0039, 3-(3-Fluorobenzyl)-4,5-diphenyl-oxazol-2-one] |
| 5.22 | 34% |  | O=c1oc(-c2ccccc2)c(-c2ccccc2)n1Cc1ccccc1 [Compound 0001] |
| 5.37 | 46% |  | CC(C)=CCC/C(C)=C/Cn1c(-c2ccccc2)c(-c2ccccc2)oc1=O [Compound 0070] |
| 5.52 | 47% |  | CC(C)=CCC[C@@H](C)CCN1C(=O)O[C@@H](c2ccccc2)[C@@H]1c1ccccc1 [Compound 0346] |
| 5.70 | 50% |  | CC(C)=CCC/C(C)=C/CN1C(=O)O[C@@H](c2ccccc2)[C@@H]1c1ccccc1 [Compound 0288] |
